Read-outs that look alike come from different tables or passages of the source.
Experiments:
Format in all cases: cell-based
[1] = tested on: Human Multiple myeloma cell line (MM.1S); assay: Inhibition of MM.1S cell proliferation (CellTiter luminescent viability); details: Homo sapiens, MM1.S, 96 hours; for inhibition at 0.01 µM: 10 nM, read-out: Inhibition Rate at 10 nM (%); for inhibition at 0.5 µM: 500 nM, read-out: Inhibition Rate at 500 nM (%)
Description: (§1) The tumor cells used herein were cultured in a cell culture medium listed in table 3 at 37 °C in an incubator with 5% CO2. Prior to experimentation, all cell lines used were correctly identified by STR profiling, and tested negative for mycoplasma contamination using a mycoplasma detection kit through routine screenings.
(§2) The IC50 values of the compounds of the present disclosure (including the compounds in Table 1, Table 2, and Examples 1-468) were determined using the CellTiter-Meiluncell Luminescent Cell Viability Assay Kit from Dalian Meilun Biotech Co., Ltd. The detailed procedure is as follows: Tumor cells were seeded in 96-well cell culture plates at the densities specified in Table 4. On the following day, the test compounds of the present disclosure were subjected to serial dilution. The dilution can be performed according to one of the following two methods: • (1) The first dilution method: The test compounds of the present disclosure (including the compounds in Table 1, Table 2, and Examples 1-468) were subjected to 5-fold serial dilutions starting from a highest concentration of 2000 μM, resulting in a total of 9 concentrations from high to low (2000, 400, 80, 16, 3.2, 0.64, 0.128, 0.0256, 0.00512 μM). Subsequently, 0.5 μL of the test compound dilution was transferred into the 96-well plate containing the cells, with each well containing 100 μL of cell culture medium. […] Into the 96-well plate, the diluted test compounds and corresponding detection reagents were added, resulting in final test compound concentrations of 500 nM and 10 nM, respectively. The experimental procedure is described below using the diluted 2 μM test compound as an example.
(§3) 0.5 μL of the aforementioned diluted compound of the present disclosure (including the compounds in Table 1, Table 2, and Examples 1-468) was added to the seeded cells in 100 μL of medium, yielding a final test compound concentration of 10 nM. After the cells were treated with the compounds of the present disclosure for a specified period, the cell viability assay reagent was added to the culture medium according to the kit's instructions to determine cell viability. […] All controls were treated using the same procedure as the compounds of the present disclosure. The growth inhibition curves for the compounds of the present disclosure were plotted using Prism GraphPad software, and the IC50 values were calculated therefrom.

[2] = tested on: Human acute lymphocytic leukemia T lymphocytes cell line (CCRF-CEM); assay: Inhibition of CCRF-CEM cell proliferation (CellTiter luminescent viability); details: Homo sapiens, 96 h; for inhibition at 0.01 µM: 10 nM, read-out: Inhibition Rate at 10 nM (%); for inhibition at 0.5 µM: 500 nM, read-out: Inhibition Rate at 500 nM (%)
Description: as §1, §2, §3

[3] = tested on: Human myeloid monocytic leukemia cell line (MV-4-11); assay: Inhibition of MV-4-11 cell proliferation (CellTiter luminescent viability); details: Homo sapiens, MV4-11, 96 hours; for inhibition at 0.01 µM: MV-4-11, 10 nM, read-out: Inhibition Rate at 10 nM (%); for inhibition at 0.5 µM: MV-4-11, 500 nM, read-out: Inhibition Rate at 500 nM (%)
Description: as §1, §2, §3

[4] = Table IL1, BCR-ABL inhibitor-based
[5] = Table IL2, BCR-ABL inhibitor-based
[6] = Table IL3, BCR-ABL inhibitor-based

SMILES: Cc1ccc(C(=O)Nc2ccc(N3CCN(CC4CCN(c5ccc6c(c5)C(=O)N(N5CCC(=O)NC5=O)C6=O)CC4)CC3)c(C(F)(F)F)c2)cc1C#Cc1cnc2cccnn12 [GT-08354, N-(4-(4-((1-(2-(2,4-dioxotetrahydropyrimidin-1(2H)-yl)-1,3-dioxoisoindolin-5-yl)piperidin-4-yl)methyl)piperazin-1-yl)-3-(trifluoromethyl)phenyl)-3-(imidazo[1,2-b]pyridazin-3-ylethynyl)-4-methylbenzamide]
- inhibition at 0.01 µM [1, 4]: 15 to 20%
- inhibition at 0.5 µM [1, 4]: 20 to 30%

SMILES: O=C1CCN(N2C(=O)c3ccc(CN4CCN(c5ccc(-c6ccc7c8cnccc8n(CC(F)(F)F)c7c6)cn5)CC4)cc3C2=O)C(=O)N1 [GT-08544, 2-(2,4-dioxotetrahydropyrimidin-1(2H)-yl)-5-((4-(5-(5-(2,2,2-trifluoroethyl)-5H-pyrido[4,3-b]indol-7-yl)pyridin-2-yl)piperazin-1-yl)methyl)isoindoline-1,3-dione]
- inhibition at 0.01 µM ([1]; Table IJ1, Tau inhibitor-based): 30 to 40%
- inhibition at 0.5 µM ([1]; Table IJ1, Tau inhibitor-based): 40 to 50%

SMILES: CN(c1cccc(CNc2nc(Nc3ccc(N4CCN(CC5CCN(c6ccc7c(c6)C(=O)N(N6CCC(=O)NC6=O)C7=O)CC5)CC4)cc3)ncc2C(F)(F)F)c1)S(C)(=O)=O [GT-08246, N-(3-(((2-((4-(4-((1-(2-(2,4-dioxotetrahydropyrimidin-1(2H)-yl)-1,3-dioxoisoindolin-5-yl)piperidin-4-yl)methyl)piperazin-1-yl)phenyl)amino)-5-(trifluoromethyl)pyrimidin-4-yl)amino)methyl)phenyl)-N-methylmethanesulfonamide]
- inhibition at 0.01 µM ([1]; Table IG1, FAK inhibitor-based): 30 to 40%
- inhibition at 0.5 µM ([1]; Table IG1, FAK inhibitor-based): 30 to 40%

SMILES: N#Cc1ccc(O[C@H]2CC[C@H](NC(=O)c3ccc(N4CCC(CN5CCN(c6cc(F)c7c(c6)C(=O)N(N6CCC(=O)NC6=O)C7=O)CC5)CC4)nn3)CC2)cc1Cl [GT-05233, N-((1r,4r)-4-(3-chloro-4-cyanophenoxy)cyclohexyl)-6-(4-((4-(2-(2,4-dioxotetrahydropyrimidin-1(2H)-yl)-7-fluoro-1,3-dioxoisoindolin-5-yl)piperazin-1-yl)methyl)piperidin-1-yl)pyridazine-3-carboxamide]
- inhibition at 0.01 µM ([2]; Table IF2, AR inhibitor-based): 15 to 20%
- inhibition at 0.5 µM ([2]; Table IF2, AR inhibitor-based): 20 to 30%

SMILES: CNC(=O)c1ccccc1Nc1cc(Nc2cc(C)c(C3CCN(Cc4ccc5c(c4)C(=O)N(N4CCC(=O)NC4=O)C5=O)CC3)cc2OC(C)C)ncc1C(F)(F)F [GT-07664, 2-((2-((4-(1-((2-(2,4-dioxotetrahydropyrimidin-1(2H)-yl)-1,3-dioxoisoindolin-5-yl)methyl)piperidin-4-yl)-2-isopropoxy-5-methylphenyl)amino)-5-(trifluoromethyl)pyridin-4-yl)amino)-N-methylbenzamide]
- inhibition at 0.01 µM ([1]; Table IG1, FAK inhibitor-based): 20 to 30%
- inhibition at 0.5 µM ([1]; Table IG1, FAK inhibitor-based): 40 to 60%

SMILES: CNC(=O)c1ccccc1Nc1cc(Nc2cc(C)c(C3CCN(Cc4ccc5c(c4)CN(N4CCC(=O)NC4=O)C5=O)CC3)cc2OC(C)C)ncc1C(F)(F)F [GT-07663, 2-((2-((4-(1-((2-(2,4-dioxotetrahydropyrimidin-1(2H)-yl)-1-oxoisoindolin-5-yl)methyl)piperidin-4-yl)-2-isopropoxy-5-methylphenyl)amino)-5-(trifluoromethyl)pyridin-4-yl)amino)-N-methylbenzamide]
- inhibition at 0.01 µM ([1]; Table IG1, FAK inhibitor-based): 5 to 10%
- inhibition at 0.5 µM ([1]; Table IG1, FAK inhibitor-based): 40 to 60%

SMILES: Cc1nc(Nc2ncc(C(=O)Nc3c(C)cccc3Cl)s2)cc(N2CCN(CCO)CC2)n1 [Dasatinib, reference compound]
- inhibition at 0.01 µM [1, 4]: 0 to 5%
- inhibition at 0.5 µM [1, 4]: 15 to 20%
- inhibition at 0.01 µM [3, 5]: 10 to 15%
- inhibition at 0.5 µM [3, 5]: 40 to 50%
- inhibition at 0.01 µM [2, 6]: 10 to 15%
- inhibition at 0.5 µM [2, 6]: 15 to 20%

SMILES: O=C1CCN(N2C(=O)c3ccc(CN4CCN(C5CCN(c6ncc(C(=O)Nc7ccc(OC(F)(F)Cl)cc7)cc6-c6cc[nH]n6)CC5)CC4)cc3C2=O)C(=O)N1 [GT-08227, N-(4-(chlorodifluoromethoxy)phenyl)-6-(4-(4-((2-(2,4-dioxotetrahydropyrimidin-1(2H)-yl)-1,3-dioxoisoindolin-5-yl)methyl)piperazin-1-yl)piperidin-1-yl)-5-(1H-pyrazol-3-yl)nicotinamide]
- inhibition at 0.01 µM [1, 4]: 20 to 30%
- inhibition at 0.5 µM [1, 4]: 20 to 30%

SMILES: CN(c1nccnc1CNc1nc(Nc2ccc(N3CCC(N4CCN(Cc5ccc6c(c5)CN(N5CCC(=O)NC5=O)C6=O)CC4)CC3)cc2)ncc1C(F)(F)F)S(C)(=O)=O [GT-08138, N-(3-(((2-((4-(4-(4-((2-(2,4-dioxotetrahydropyrimidin-1(2H)-yl)-1-oxoisoindolin-5-yl)methyl)piperazin-1-yl)piperidin-1-yl)phenyl)amino)-5-(trifluoromethyl)pyrimidin-4-yl)amino)methyl)pyrazin-2-yl)-N-methylmethanesulfonamide]
- inhibition at 0.01 µM ([3]; Table IG2, FAK inhibitor-based): 20 to 30%
- inhibition at 0.5 µM ([3]; Table IG2, FAK inhibitor-based): 80 to 100%

SMILES: O=C1CCN(N2C(=O)c3ccc(CN4CCC(N5CCN(c6ncc(C(=O)Nc7ccc(OC(F)(F)Cl)cc7)cc6-c6cc[nH]n6)CC5)CC4)cc3C2=O)C(=O)N1 [GT-08225, N-(4-(chlorodifluoromethoxy)phenyl)-6-(4-(1-((2-(2,4-dioxotetrahydropyrimidin-1(2H)-yl)-1,3-dioxoisoindolin-5-yl)methyl)piperidin-4-yl)piperazin-1-yl)-5-(1H-pyrazol-3-yl)nicotinamide]
- inhibition at 0.01 µM [2, 6]: 10 to 15%
- inhibition at 0.5 µM [2, 6]: 30 to 40%

SMILES: Cc1cc(-c2ccc3c4cnccc4n(C)c3c2)cnc1N1CCN(CC2CCN(c3ccc4c(c3)C(=O)N(N3CCC(=O)NC3=O)C4=O)CC2)CC1 [GT-08555, 2-(2,4-dioxotetrahydropyrimidin-1(2H)-yl)-5-(4-((4-(3-methyl-5-(5-methyl-5H-pyrido[4,3-b]indol-7-yl)pyridin-2-yl)piperazin-1-yl)methyl)piperidin-1-yl)isoindoline-1,3-dione]
- inhibition at 0.01 µM ([1]; Table IJ1, Tau inhibitor-based): 30 to 40%
- inhibition at 0.5 µM ([1]; Table IJ1, Tau inhibitor-based): 60 to 70%
- inhibition at 0.01 µM ([3]; Table IJ2, Tau inhibitor-based): 30 to 40%
- inhibition at 0.5 µM ([3]; Table IJ2, Tau inhibitor-based): 70 to 80%

SMILES: COc1cc(N2CCC(N(C)CC3CCN(c4cccc5c4C(=O)N(N4CCC(=O)NC4=O)C5=O)CC3)CC2)ccc1Nc1ncc(Cl)c(Nc2ccccc2P(C)(C)=O)n1 [GT-08254, 4-(4-(((1-(4-((5-chloro-4-((2-(dimethylphosphoryl)phenyl)amino)pyrimidin-2-yl)amino)-3-methoxyphenyl)piperidin-4-yl)(methyl)amino)methyl)piperidin-1-yl)-2-(2,4-dioxotetrahydropyrimidin-1(2H)-yl)isoindoline-1,3-dione]
- inhibition at 0.01 µM ([3]; Table IB2, ALK inhibitor-based): 45 to 55%
- inhibition at 0.5 µM ([3]; Table IB2, ALK inhibitor-based): 60 to 80%

SMILES: O=C1CCN(N2Cc3cc(CN4CCN(C5CCN(c6ncc(C(=O)Nc7ccc(OC(F)(F)Cl)cc7)cc6-c6cc[nH]n6)CC5)CC4)ccc3C2=O)C(=O)N1 [GT-08226, N-(4-(chlorodifluoromethoxy)phenyl)-6-(4-(4-((2-(2,4-dioxotetrahydropyrimidin-1(2H)-yl)-1-oxoisoindolin-5-yl)methyl)piperazin-1-yl)piperidin-1-yl)-5-(1H-pyrazol-3-yl)nicotinamide]
- inhibition at 0.01 µM [2, 6]: 5 to 10%
- inhibition at 0.5 µM [2, 6]: 30 to 40%

From patent US20260364184A1, “COMPOUND BASED ON OXOISOINDOLINYL-SUBSTITUTED TETRAHYDROPYRIMIDINE-DIONE AND USE THEREOF” (GLUETACS THERAPEUTICS (SHANGHAI) CO., LTD., priority 2023, published 2026)
